{"source": "patent US12201610B2", "about": "“Compositions comprising aticaprant” (Janssen Pharmaceuticals, Inc., priority 2022, dated 2025)", "assay": "Phase 1 PK Part 2: relative bioavailability, dose proportionality, food effect of milled API tablet", "format": "in vivo, human", "method": "This is a Phase 1, open-label, single dose, multicenter, 4-part study in healthy adult participants.\nPotential participants will be screened from Day −28 to Day −2 to determine participants' eligibility for study participation. For Part 1, qualified participants will be admitted on Day −1 of each treatment period and will remain in-house for the total duration of the treatment (Day −1 until Day 5, with single-dose treatment on Day 1 and 96 hours of PK), whereas for Part 2, PK sampling will be done up to 120 hours (Day 6). Each dosed participant will have a safety follow-up on Day 10 to Day 14 after last dose of the study intervention.\nThe Part 2 of the study involves determination of relative bioavailability for tablet (Formulation Concept 2, i.e., milled (microfine) aticaprant formulation; see Table 10) and capsule formulations (see Example 6, study design, for description of capsule formulation) and dose proportionality and food effect for tablet formulation (Formulation Concept 2) in healthy adult participants (FIG. 26). Part 2 will consist of Subpart 2A and Subpart 2B consisting of a total of 4 periods. […] Participants will be assigned to 1 of 6 treatment sequences (Table 55) and will be administered the 3 treatments in a 3-way crossover. The same 24 participants who complete Subpart 2A will be enrolled in Subpart 2B. Subpart 2B consists of a fourth period to evaluate the food effect of a single dose of 10 mg aticaprant administered as 1×10 mg oral tablet (Formulation Concept 2) under fed conditions (Treatment H; Tables 54 and 56). A preliminary PK analysis will be conducted at the end of the food effect part (Subpart 2B) for all the periods from Part 2 and will include the food effect data.\nFor each individual participant, there will be a washout period of at least 7 days for Part 1 and at least 8 days for Part 2 between subsequent intakes of the study intervention. Day 1 of a treatment period (day of study intervention intake) is the first day of the washout period (also in between the study parts, if applicable).\nParticipants will be fasting in Part 1A and Part 2A. Participants will have been fed in Parts 1B and 2B. For a fasted condition, participants will fast (nothing to cat or drink except noncarbonated water) overnight for at least 10 hours before and until 4 hours after study intervention administration during each fasted treatment period. Approximately, 4 hours post-dose and after the 4-hour PK sampling, a standard lunch will be served at the study-site. Intake of water is allowed until 2 hours before the intake of the study intervention. Thereafter, water intake is only allowed for study intervention intake and for breakfast, if applicable. Drinking of water is allowed ad libitum from approximately 2 hours after dosing. For a fed condition, participants will consume, after an overnight fast (at least 10 hours), a standardized high-fat breakfast within a 20-minute period. […] Study intervention will be administered approximately 30 minutes after the start of the breakfast.\nIn Parts 1 and 2, plasma concentrations will be determined for aticaprant. Blood samples for determination of plasma concentrations of aticaprant will be collected predose and at the postdose time points starting on Day 1 as indicated in the Tables 57-58.\nThe following plasma PK parameters of aticaprant will be determined. A noncompartmental model with extravascular input will be used for the pharmacokinetic analysis.\nBased on the individual concentration-time data, using the actual sampling times, the following PK parameters will be derived for aticaprant: […]", "key": {"[1]": {"conditions": "Dose proportionality: Treatment G (5 mg milled API tablet normalized to 10 mg, Test)/Treatment F (10 mg, Reference), fasting"}, "[2]": {"conditions": "Food effect: Treatment H (high-fat diet, Test)/Treatment F (fasted, Reference), 10 mg milled API tablet"}, "[3]": {"conditions": "Relative BA: Treatment F (10 mg milled API tablet, Test)/Treatment E (2 × 5 mg capsule, Reference), fasting"}, "[4]": {"conditions": "Treatment E: 2 × 5 mg oral capsule, fasting, mean"}, "[5]": {"conditions": "Treatment F: 1 × 10 mg Formulation Concept 2 (milled API tablet), fasting, mean (SD)"}, "[6]": {"conditions": "Treatment G (1 × 5 mg Formulation Concept 2, fasting), dose normalized to 10 mg, mean (SD)"}, "[7]": {"conditions": "Treatment G: 1 × 5 mg Formulation Concept 2 (milled API tablet), fasting, mean"}, "[8]": {"conditions": "Treatment H: 1 × 10 mg Formulation Concept 2 (milled API tablet), after high-fat breakfast, mean"}}, "note": "Read-outs that look alike come from different tables or passages of the source. Marks after values point to notes of the source that are not given here."}
{"smiles": "Cc1cc(C)cc(C2CCCN2Cc2ccc(Oc3ccc(C(N)=O)cc3F)cc2)c1", "note": "(centres unmarked) [aticaprant, 3-fluoro-4-4-2-(3,5-dimethylphenyl)pyrrolidin-1-yl-methylphenoxybenzamide]", "values": [{"measurement": "Geometric Mean Cmax", "setting": "Dose proportionality, completers, Treatment G (Test): 1 × 5 mg Formulation Concept 2, fasting, Dose Normalized to 10 mg", "result": 32.5, "unit": "ng/mL"}, {"measurement": "Ratio of Geometric Means, AUClast", "setting": "[1]", "result": 104.15, "unit": "%"}, {"measurement": "Ratio of Geometric Means, AUC∞", "setting": "[1]", "result": 106.40, "unit": "%"}, {"measurement": "Ratio of Geometric Means, Cmax", "setting": "[1]", "result": 105.13, "unit": "%"}, {"measurement": "Ratio of Geometric Means, AUClast", "setting": "[2]", "result": 134.90, "unit": "%"}, {"measurement": "Ratio of Geometric Means, AUC∞", "setting": "[2]", "result": 135.55, "unit": "%"}, {"measurement": "Ratio of Geometric Means, Cmax", "setting": "[2]", "result": 107.30, "unit": "%"}, {"measurement": "Ratio of Geometric Means, AUClast", "setting": "[3]", "result": 94.31, "unit": "%"}, {"measurement": "Ratio of Geometric Means, AUC∞", "setting": "[3]", "result": 93.66, "unit": "%"}, {"measurement": "Ratio of Geometric Means, Cmax", "setting": "[3]", "result": 102.30, "unit": "%"}, {"measurement": "% AUC∞, ex", "setting": "[4]", "result": 5.02, "unit": "%"}, {"measurement": "CL/F", "setting": "[4]", "result": 34.8, "unit": "L/h"}, {"measurement": "λz", "setting": "[4]", "result": 0.024, "unit": "h⁻¹"}, {"measurement": "% AUC∞, ex", "setting": "[5]", "result": "5.50 (3.17) %"}, {"measurement": "CL/F", "setting": "[5]", "result": "35.8 (12.1) L/h"}, {"measurement": "Cmax", "setting": "[5]", "result": "32.4 (7.39) ng/mL"}, {"measurement": "λz", "setting": "[5]", "result": "0.024 (0.007) 1/h"}, {"measurement": "AUClast, G Dose Normalized", "setting": "[6]", "result": "314 (160) h * ng/mL"}, {"measurement": "AUC∞, G Dose Normalized", "setting": "[6]", "result": "308 (74.1)^a h * ng/mL"}, {"measurement": "Cmax, G Dose Normalized", "setting": "[6]", "result": "34.7 (11.6) ng/mL"}, {"measurement": "% AUC∞, ex", "setting": "[7]", "result": 6.93, "unit": "%"}, {"measurement": "CL/F", "setting": "[7]", "result": 34.7, "unit": "L/h"}, {"measurement": "λz", "setting": "[7]", "result": 0.030, "unit": "h⁻¹"}, {"measurement": "% AUC∞, ex", "setting": "[8]", "result": 4.92, "unit": "%"}, {"measurement": "CL/F", "setting": "[8]", "result": 27.0, "unit": "L/h"}, {"measurement": "Cmax", "setting": "[8]", "result": 34.0, "unit": "ng/mL"}, {"measurement": "λz", "setting": "[8]", "result": 0.025, "unit": "h⁻¹"}, {"measurement": "AUC(0-t)", "setting": "human, plasma, oral, 5 mg, Dose proportionality, completers, Treatment G (Test): 1 × 5 mg Formulation Concept 2, fasting, Dose Normalized to 10 mg, read-out: Geometric Mean AUClast", "result": 285, "unit": "ng·h/mL"}, {"measurement": "AUC(0-inf)", "setting": "human, plasma, oral, 5 mg, Dose proportionality, completers, Treatment G (Test): 1 × 5 mg Formulation Concept 2, fasting, Dose Normalized to 10 mg, read-out: Geometric Mean AUC∞", "result": 296, "unit": "ng·h/mL"}, {"measurement": "half-life", "setting": "human, plasma, oral, 5 mg, Treatment G: 1 × 5 mg Formulation Concept 2 (milled API tablet), fasting, mean", "result": 26.6, "unit": "h"}, {"measurement": "AUC(0-t)", "setting": "human, plasma, oral, 5 mg, Treatment G: 1 × 5 mg Formulation Concept 2 (milled API tablet), fasting, mean, read-out: AUClast", "result": 157, "unit": "ng·h/mL"}, {"measurement": "AUC(0-inf)", "setting": "human, plasma, oral, 5 mg, Treatment G: 1 × 5 mg Formulation Concept 2 (milled API tablet), fasting, mean, read-out: AUC∞", "result": 154, "unit": "ng·h/mL"}, {"measurement": "Cmax", "setting": "human, plasma, oral, 5 mg, Treatment G: 1 × 5 mg Formulation Concept 2 (milled API tablet), fasting, mean, read-out: Cmax", "result": 17.4, "unit": "ng/mL"}, {"measurement": "Tmax", "setting": "human, plasma, oral, 5 mg, Treatment G: 1 × 5 mg Formulation Concept 2 (milled API tablet), fasting, median", "result": 1, "unit": "h"}, {"measurement": "AUC(0-t)", "setting": "human, plasma, oral, 10 mg, Dose proportionality, completers, Treatment F (Reference): 1 × 10 mg Formulation Concept 2, fasting, read-out: Geometric Mean AUClast", "result": 274, "unit": "ng·h/mL"}, {"measurement": "AUC(0-inf)", "setting": "human, plasma, oral, 10 mg, Dose proportionality, completers, Treatment F (Reference): 1 × 10 mg Formulation Concept 2, fasting, read-out: Geometric Mean AUC∞", "result": 279, "unit": "ng·h/mL"}, {"measurement": "Cmax", "setting": "human, plasma, oral, 10 mg, Dose proportionality, completers, Treatment F (Reference): 1 × 10 mg Formulation Concept 2, fasting, read-out: Geometric Mean Cmax", "result": 30.9, "unit": "ng/mL"}, {"measurement": "AUC(0-t)", "setting": "human, plasma, oral, 10 mg, Food effect, completers, Treatment F (Reference): 1 × 10 mg milled API tablet, fasted, read-out: Geometric Mean AUClast", "result": 279, "unit": "ng·h/mL"}, {"measurement": "AUC(0-inf)", "setting": "human, plasma, oral, 10 mg, Food effect, completers, Treatment F (Reference): 1 × 10 mg milled API tablet, fasted, read-out: Geometric Mean AUC∞", "result": 280, "unit": "ng·h/mL"}, {"measurement": "Cmax", "setting": "human, plasma, oral, 10 mg, Food effect, completers, Treatment F (Reference): 1 × 10 mg milled API tablet, fasted, read-out: Geometric Mean Cmax", "result": 31.3, "unit": "ng/mL"}, {"measurement": "AUC(0-t)", "setting": "human, plasma, oral, 10 mg, Food effect, completers, Treatment H (Test): 1 × 10 mg milled API tablet, high-fat diet, read-out: Geometric Mean AUClast", "result": 377, "unit": "ng·h/mL"}, {"measurement": "AUC(0-inf)", "setting": "human, plasma, oral, 10 mg, Food effect, completers, Treatment H (Test): 1 × 10 mg milled API tablet, high-fat diet, read-out: Geometric Mean AUC∞", "result": 379, "unit": "ng·h/mL"}, {"measurement": "AUC(0-t)", "setting": "human, plasma, oral, 10 mg, Relative BA, completers, Treatment F (Test): 1 × 10 mg Formulation Concept 2 (milled API tablet), fasting, read-out: Geometric Mean AUClast", "result": 274, "unit": "ng·h/mL"}, {"measurement": "AUC(0-inf)", "setting": "human, plasma, oral, 10 mg, Relative BA, completers, Treatment F (Test): 1 × 10 mg Formulation Concept 2 (milled API tablet), fasting, read-out: Geometric Mean AUC∞", "result": 279, "unit": "ng·h/mL"}]}
